For experiment [1], the system named is P2X7R left flipper point mutant D280A. The experiment can be described thus: Two-electrode voltage clamp of ATP-evoked currents in Xenopus oocytes. It counts as cell-based, human. (In general: In two-electrode clamp one electrode senses voltage and the other passes current.)
Experimental: (§1) The production of the correct mutations and absence of coding errors was determined by DNA sequencing (Automated ABI Sequencing Service, University of Leicester, UK). cRNA was generated for the mutants and 50 nl (50 ng) was injected into manually defoliculated stage V Xenopus laevis oocytes using an Inject+Matic microinjector (J.A. Gabay, Inject+Matic, Geneva, Switzerland). Injected oocytes were stored at 16°C in ND96 buffer [in millimolar concentrations, NaCl 96, KCl 2, CaCl2 1.8, MgCl2 1, sodium pyruvate 5, and HEPES 5 (pH 7.6) supplemented with 50 μg/ml gentamycin and 50 μg/ml tetracycline]. Three to seven days postinjection two-electrode voltage clamp recordings were made from oocytes bathed in divalent-free ND96 buffer (in millimolar concentrations, NaCl 96, KCl 2, sodium pyruvate 5, HEPES 5, and 0.1 flufenamic acid, pH 7.6). Oocytes were voltage clamped at a holding potential of −60 mV with a GeneClamp500B amplifier (Molecular Devices).
(§2) Inhibition by the antagonists was expressed as the percentage of the peak current amplitude of an EC90 concentration of ATP recorded before the application of antagonist (ATP gave reproducible responses to ATP in the absence of antagonist). Inhibition curves were fitted with the Hill equation (variable slope) using GraphPad Prism 6 (GraphPad Software, San Diego, CA). […]
The test system of experiment [2] is P2X7R left flipper point mutant K281A. Described as above. Type of experiment: cell-based, human.
Experimental: (§3) Injected oocytes were stored at 16°C in ND96 buffer [in millimolar concentrations, NaCl 96, KCl 2, CaCl2 1.8, MgCl2 1, sodium pyruvate 5, and HEPES 5 (pH 7.6) supplemented with 50 μg/ml gentamycin and 50 μg/ml tetracycline]. Three to seven days postinjection two-electrode voltage clamp recordings were made from oocytes bathed in divalent-free ND96 buffer (in millimolar concentrations, NaCl 96, KCl 2, sodium pyruvate 5, HEPES 5, and 0.1 flufenamic acid, pH 7.6). Oocytes were voltage clamped at a holding potential of −60 mV with a GeneClamp500B amplifier (Molecular Devices).
(§4) Electrophysiological traces were digitized with a Digidata 1322A and collected using pCLAMP 8.2 software (Molecular Devices, Menlo Park, CA). An EC90 concentration of ATP was used to test antagonist sensitivity for the P2X7-2Nβ and mutant receptors [ATP sensitivity of the chimeras and mutants are reported in [Allsopp et al. (2017)]] to standardize for any changes in ATP sensitivity.
(§5) Inhibition by the antagonists was expressed as the percentage of the peak current amplitude of an EC90 concentration of ATP recorded before the application of antagonist (ATP gave reproducible responses to ATP in the absence of antagonist). […] Any significant differences from the P2X7-2Nβ control were calculated by one-way analysis of variance, followed by Dunnett’s test (using GraphPad Prism 6). […]
Experiment [3] deals with P2X7R left flipper point mutant T282A. The experiment is described as above. Type of experiment: cell-based, human.
Experimental: as §1, §2
The subject of experiment [4] is P2X7R left flipper point mutant T283A. Described as above. Type of experiment: cell-based, human.
Experimental: as §3, §4, §5
The test system of experiment [5] is P2X7R left flipper point mutant N284A. Described as above. It counts as cell-based, human.
Experimental: as §1, §2
A further experiment addresses T1, P2X7R point mutant R206A (Homo sapiens, UniProt Q99572, I21V/M24R/N16P/N25R/Q22R/R206A/R20V/S23N/T19I/Y26L).
T1 construct: expressed in transfected cells; host or cells: Xenopus laevis oocytes (cRNA injection)
The description is as above. It counts as cell-based. As to conditions: mean ± S.E.M.

The target in another experiment is T2, P2X7R point mutant K193A (Homo sapiens, UniProt Q99572, I21V/K193A/M24R/N16P/N25R/Q22R/R20V/S23N/T19I/Y26L).
T2 construct: expressed in transfected cells; host or cells: Xenopus laevis oocytes (cRNA injection)
T2 sequence (Q99572 whole entry N16P/T19I/R20V/I21V/Q22R/S23N/M24R/N25R/Y26L/K193A): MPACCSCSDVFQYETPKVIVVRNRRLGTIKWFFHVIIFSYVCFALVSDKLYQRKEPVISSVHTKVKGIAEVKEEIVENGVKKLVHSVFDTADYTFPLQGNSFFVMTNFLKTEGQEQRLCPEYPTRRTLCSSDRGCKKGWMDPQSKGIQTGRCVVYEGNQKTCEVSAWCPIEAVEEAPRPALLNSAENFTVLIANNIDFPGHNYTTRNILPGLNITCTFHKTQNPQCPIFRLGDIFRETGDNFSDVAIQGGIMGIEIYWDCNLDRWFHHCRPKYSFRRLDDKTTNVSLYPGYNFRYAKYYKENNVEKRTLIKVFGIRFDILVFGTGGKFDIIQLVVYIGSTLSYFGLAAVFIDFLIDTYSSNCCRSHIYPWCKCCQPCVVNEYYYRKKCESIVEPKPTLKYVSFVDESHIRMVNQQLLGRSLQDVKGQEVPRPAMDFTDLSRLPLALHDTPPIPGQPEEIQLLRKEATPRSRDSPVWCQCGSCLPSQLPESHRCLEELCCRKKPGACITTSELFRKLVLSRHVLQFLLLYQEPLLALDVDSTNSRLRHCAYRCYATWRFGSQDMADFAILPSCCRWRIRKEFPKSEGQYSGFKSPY
The experiment is described as above. Type of experiment: cell-based.

For experiment [6], the target named is T3, chimeric P2X7R with left flipper 280–284 of P2X4 (Homo sapiens, UniProt Q99572, D280T/I21V/K281R/M24R/N16P/N25R/N284E/Q22R/R20V/S23N/T19I/T282D/T283V/Y26L).
T3 sequence (Q99572 1-595 N16P/T19I/R20V/I21V/Q22R/S23N/M24R/N25R/Y26L/D280T/K281R/T282D/T283V/N284E): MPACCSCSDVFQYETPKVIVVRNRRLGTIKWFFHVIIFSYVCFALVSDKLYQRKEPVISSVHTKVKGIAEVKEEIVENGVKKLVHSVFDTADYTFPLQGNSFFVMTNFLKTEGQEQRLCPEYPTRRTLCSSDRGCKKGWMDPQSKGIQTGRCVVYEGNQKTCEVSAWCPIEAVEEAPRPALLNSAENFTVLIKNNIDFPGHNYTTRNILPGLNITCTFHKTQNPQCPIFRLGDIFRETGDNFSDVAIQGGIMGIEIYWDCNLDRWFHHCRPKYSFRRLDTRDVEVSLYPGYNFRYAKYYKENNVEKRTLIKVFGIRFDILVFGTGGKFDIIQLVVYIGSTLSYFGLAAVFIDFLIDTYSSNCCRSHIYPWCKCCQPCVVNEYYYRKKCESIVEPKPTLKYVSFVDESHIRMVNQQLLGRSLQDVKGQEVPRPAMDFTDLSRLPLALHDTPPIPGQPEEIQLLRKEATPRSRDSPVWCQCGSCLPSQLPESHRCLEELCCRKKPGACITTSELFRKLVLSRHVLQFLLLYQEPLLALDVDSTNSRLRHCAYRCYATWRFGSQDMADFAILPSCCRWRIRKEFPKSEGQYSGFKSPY
The note with it: chimera 280–284 of P2X4.
Experimental: as §1
Inhibition by the antagonists was expressed as the percentage of the peak current amplitude of an EC90 concentration of ATP recorded before the application of antagonist (ATP gave reproducible responses to ATP in the absence of antagonist). Inhibition curves were fitted with the Hill equation (variable slope) using GraphPad Prism 6 (GraphPad Software, San Diego, CA). […] Individual concentration-response curves were generated for individual experiments, and statistical analysis was carried out on the data generated. […] Data are shown as mean ± S.E.M. In all cases n ≥ 3 for all data points.

The target of experiment [7] is T4, chimeric P2X7/1 receptor 279–285 (left flipper) (Homo sapiens, UniProt Q99572, DEL279-281/I21V/M24R/N16P/N25R/N284E/Q22R/R20V/S23N/T19I/T282Y/T283E/V285K/Y26L).
T4 construct: expressed in transfected cells; host or cells: Xenopus laevis oocytes (cRNA injection)
T4 sequence (Q99572 with tags, fused parts or gaps N16P/T19I/R20V/I21V/Q22R/S23N/M24R/N25R/Y26L/DEL279-281/T282Y/T283E/N284E/V285K): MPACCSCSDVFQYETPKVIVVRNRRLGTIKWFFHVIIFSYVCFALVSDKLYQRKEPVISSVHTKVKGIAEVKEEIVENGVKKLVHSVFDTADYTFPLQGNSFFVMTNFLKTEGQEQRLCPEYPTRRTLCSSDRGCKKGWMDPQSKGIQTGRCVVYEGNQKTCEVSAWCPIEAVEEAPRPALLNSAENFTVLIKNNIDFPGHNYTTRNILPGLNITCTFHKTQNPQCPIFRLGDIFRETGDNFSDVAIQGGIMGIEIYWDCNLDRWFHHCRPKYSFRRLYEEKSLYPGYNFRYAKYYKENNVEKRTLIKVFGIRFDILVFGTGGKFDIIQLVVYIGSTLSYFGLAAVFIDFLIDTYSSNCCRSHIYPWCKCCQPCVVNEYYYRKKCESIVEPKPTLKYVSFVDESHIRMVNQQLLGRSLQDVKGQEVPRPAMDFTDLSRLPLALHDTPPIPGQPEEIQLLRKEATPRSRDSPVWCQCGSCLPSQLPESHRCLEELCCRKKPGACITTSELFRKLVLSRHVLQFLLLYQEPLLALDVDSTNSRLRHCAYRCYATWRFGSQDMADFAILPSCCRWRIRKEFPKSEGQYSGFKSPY
Set-up: method as in Allsopp et al., 2017. The note with it: chimera 279–285; ref Allsopp et al., 2017; cited from earlier work.

For another experiment, the system named is P2X7R. Details: method as in North, 2002; Kaczmarek-Hajek et al., 2012. As to conditions: physiologic concentrations of calcium and magnesium; ref North, 2002; Kaczmarek-Hajek et al., 2012; cited from earlier work.
For a further experiment, the system named is other P2XR subtypes. Set-up: method as in North, 2002; Kaczmarek-Hajek et al., 2012. The note with it: ref North, 2002, Kaczmarek-Hajek et al., 2012; cited from earlier work.

We go through one compound from article PMC5896373 (Molecular Pharmacology, 2018).

A value given as a limit tells only on which side of the number the result lay.

In general, EC50 refers to the midpoint of the concentration-response curve.

T1 sequence (Q99572 whole entry N16P/T19I/R20V/I21V/Q22R/S23N/M24R/N25R/Y26L/R206A): as the sequence (Q99572 whole entry N16P/T19I/R20V/I21V/Q22R/S23N/M24R/N25R/Y26L/K193A) above, with A193K, R206A counted along it
Experimental for P2X7R point mutant K193A: as §3, §4, §5
Experimental for P2X7R point mutant R206A: as §3, §4, §5

`Nc1ncnc2c1ncn2[C@@H]1O[C@H](COP(=O)(O)OP(=O)(O)OP(=O)(O)O)[C@@H](O)[C@H]1O` [ATP]: the “fold increase in ATP potency” value in experiment [1] was 15 fold. Moreover, the “fold decrease in ATP sensitivity” value is listed as 2 fold in [2] and 3.4 fold in [4]. Further, the “effect on ATP sensitivity” value in [3] and in experiment [5] was “no effect” throughout. Also, the “ATP sensitivity pEC50” value on P2X7R point mutant R206A was determined as 4.33 ± 0.06. Besides, the “amplitude of ATP-evoked responses” value at P2X7R point mutant K193A is reported as under 100 nA. In addition, the “fold increase in ATP sensitivity/potency” value in experiment [6] is listed as about 15 fold. For the same compound, the “fold increase in sensitivity to ATP” value in [7] is about 30 fold. Also, the EC50 was 300 to 1000 µM with P2X7R and 1 to 30 µM in the experiment on other P2XR subtypes.
